# According to patent publication US20240294526A1, “FUSED TRI-CYCLIC COMPOUND AS A PDE3/PDE4 DUAL INHIBITOR” (CHIA TAI TIANQING PHARMACEUTICAL GROUP CO., LTD., priority 2018, published 2024):
# Key:
# [1] = reported; cited from earlier work
# [2] = reported; cited from earlier work; remark: listed apart in the source
# recombinant human PDE3A = recombinant human PDE3A (Homo sapiens (Human), UniProt Q14432); experiment: In vitro inhibitory activity against PDE 3A enzyme (fluorescence polarization); type: biochemical; conditions: 1 μM cAMP
# Description: (§1) Experimental objective: to determine the AMP/GMP expression based on fluorescence polarization, i.e., to trace binding of AMP/GMP to antibody so as to indicate enzyme activity.
# Experimental buffer solution: 10 mM Tris-HCl (pH 7.5), 5 mM MgCl2, 0.01% Brij 35, 1 mM Dithiothreitol (DTT), and 1% DMSO.
# Enzyme: recombinant human PDE3A (Gene accession number: NM_000921; amino acid 669-end) was expressed by baculovirus in Sf9 insect cells using an N-terminal GST tag, with molecularweight being 84 kDa.
# (§2) Enzyme substrate: 1 μM cAMP
# (§3) Detection: Transcreener® AMP2/GMP2 antibody and AMP2/GMP2 AlexaFluor633 tracer.
# (§4) • 1. The recombinant human PDE3A enzyme and enzyme substrate (1 μM cAMP) were each dissolved in newly-prepared experimental buffer solution; • 2. The PDE3A enzyme buffer solution was transferred into reaction wells; • 3. The compound which was dissolved in 100% DMSO was added to the reaction wells containing PDE3A enzyme buffer solution by acoustic technique (echo 550; millilambda range) and the mixture was incubated for 10 minutes at room temperature; • 4. The enzyme substrate buffer solution was added to the above reaction wells to initiate reaction; • 5. The resulting mixture was incubated at room temperature for 1 hour; • 6. The detection mixture (Transcreener® AMP2/GMP2 antibody and AMP2/GMP2 AlexaFluor633 tracer) was added to stop the reaction, and the resulting mixture was incubated for 90 minutes while slowly mixing. The measurement range of fluorescence polarization was Ex/Em=620/688.
# (§5) Data analysis: the fluorescence polarization signal was converted to nM based on AMP/GMP standard curve and the percentage enzyme activity relative to DMSO control calculated by Excel. GraphPad Prism was used for curve fitting (drawing medical icon).
# recombinant human PDE4B = recombinant human PDE4B (Homo sapiens (Human), UniProt Q07343); experiment: In vitro inhibitory activity against PDE 4B enzyme (fluorescence polarization); type: biochemical; conditions: 1 μM cAMP
# Description: as §1
# Experimental buffer solution: 10 mM Tris-HCl (pH 7.5), 5 mM MgCl2, 0.01% Brij 35, 1 mM DTT, and 1% DMSO.
# Enzyme: recombinant human PDE4B (Gene accession number: NM_002600; amino acid 305-end) was expressed by baculovirus in Sf9 insect cells using an N-terminal GST tag, with molecularweight being 78 kDa.
# as §2, §3
# as §4, with “PDE4B” for “PDE3A”, “newly prepared” for “newly-prepared”
# as §5
# [3] = Pharmacokinetic experiment in beagle dogs; type: in vivo
# Description: In this study, male beagle dogs were selected as test animals, and liquid chromatography-tandem mass spectrometry (LC-MS/MS) method was used for quantitatively measuring the drug concentration in plasma of beagle dogs at different time points after intravenous injection or oral administration of compound WX036 so as to evaluate the pharmacokinetic characteristics of the compound WX036 in beagle dogs.
# The clear solution of compound WX036 was injected into two 10-12 kg beagle dogs via the cephalic vein or saphenous vein, and the clear solution of test compound was administered intragastrically to two 10-12 kg beagle dogs (overnight fasted). The animals were all subjected to approximately 500 μL of blood collection each time from peripheral veins at 0.0333, 0.0833, 0.25, 0.5, 1, 2, 4, 6, 8, and 24 hours post-dose, and the blood was transferred into commercial centrifuge tubes containing 0.85-1.15 mg of K2 EDTA*2H2O anticoagulant, and plasma was taken by centrifugation at 3000 g for 10 minutes at 4° C. The plasma concentration was measured by LC-MS/MS method, and the relevant pharmacokinetic parameters were calculated by WinNonlin™ Version 6.3 (Pharsight, Mountain View, CA) pharmacokinetic software using non-compartmental model linear logarithmic trapezoid method.
# Chain of recombinant human PDE3A (Q14432 669-1141 limits assumed): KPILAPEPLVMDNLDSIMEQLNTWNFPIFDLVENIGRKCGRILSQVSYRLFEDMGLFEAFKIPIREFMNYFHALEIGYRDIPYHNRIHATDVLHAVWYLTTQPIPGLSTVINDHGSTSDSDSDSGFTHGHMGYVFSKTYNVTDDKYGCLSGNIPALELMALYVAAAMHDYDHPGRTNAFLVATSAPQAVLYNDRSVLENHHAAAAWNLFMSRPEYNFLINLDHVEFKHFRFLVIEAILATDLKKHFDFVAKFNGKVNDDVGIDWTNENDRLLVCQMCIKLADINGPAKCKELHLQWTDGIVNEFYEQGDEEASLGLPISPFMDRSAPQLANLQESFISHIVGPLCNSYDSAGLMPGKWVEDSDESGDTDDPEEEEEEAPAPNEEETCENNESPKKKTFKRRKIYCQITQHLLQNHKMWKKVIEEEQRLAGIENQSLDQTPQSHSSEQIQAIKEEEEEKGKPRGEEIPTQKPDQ
# Chain of recombinant human PDE4B (Q07343 305-736 limits assumed): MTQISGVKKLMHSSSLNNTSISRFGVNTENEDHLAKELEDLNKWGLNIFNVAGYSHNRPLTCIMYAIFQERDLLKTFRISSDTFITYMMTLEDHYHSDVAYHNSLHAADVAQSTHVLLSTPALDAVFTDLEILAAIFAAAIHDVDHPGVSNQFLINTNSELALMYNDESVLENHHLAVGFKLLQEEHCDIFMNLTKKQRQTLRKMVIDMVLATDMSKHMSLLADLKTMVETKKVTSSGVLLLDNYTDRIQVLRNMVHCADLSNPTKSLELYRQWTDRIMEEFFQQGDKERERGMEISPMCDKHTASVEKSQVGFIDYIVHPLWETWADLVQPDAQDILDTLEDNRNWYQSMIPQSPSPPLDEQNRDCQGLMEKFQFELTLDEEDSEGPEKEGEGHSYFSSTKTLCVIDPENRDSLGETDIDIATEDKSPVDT
Structure (SMILES),IC50 (recombinant human PDE3A),IC50 (recombinant human PDE4B),other results
COc1cc2c(cc1OC)-c1c/c(=N\c3c(C)cc(C)cc3C)n(CCNC(N)=O)c(=O)n1CC2 [RPL554],,,plasma clearance [1]: high; solubility [2]: poor
COc1cc2c(cc1OC)-c1cc(Oc3c(C(C)C)cccc3C(C)C)nc(=O)n1CC2 [RPL565],,,plasma clearance [1]: high; solubility [2]: poor
CCOc1cc2c(cc1OC)-c1c/c(=N\c3c(C)cc(C)cc3C)n(CCNc3nc[nH]n3)c(=O)n1CCC2 [WX004],0.63 nM,0.12 nM,
CCOc1cc2c(cc1OC)-c1c/c(=N\c3c(C)cc(C)cc3C)n(CCNC(=O)c3cnn[nH]3)c(=O)n1CC2 [WX016],,0.24 nM,
CCOc1cc2c(cc1OC)-c1c/c(=N\c3c(C)cc(C)cc3C)n(CCNC(=O)c3ncc[nH]3)c(=O)n1CC2 [WX017],,0.43 nM,
CCOc1cc2c(cc1OC)-c1c/c(=N\c3c(C)cc(C)cc3C)n(CCNC(=O)c3ccn[nH]3)c(=O)n1CC2 [WX018],,0.05 nM,
CCOc1cc2c(cc1OC)-c1c/c(=N\c3c(C)cc(C)cc3C)n(CCNC(=O)c3ncco3)c(=O)n1CC2 [WX019],,0.48 nM,
CCOc1cc2c(cc1OC)-c1c/c(=N\c3c(C)cc(C)cc3C)n(CCNC(=O)c3ncon3)c(=O)n1CC2 [WX020],,0.47 nM,
CCOc1cc2c(cc1OC)-c1c/c(=N\c3c(C)cc(C)cc3C)n(CCNC(=O)c3cnc[nH]3)c(=O)n1CC2 [WX021],,1.1 nM,
CCOc1cc2c(cc1OC)-c1c/c(=N\c3c(C)cc(C)cc3C)n(CCNC(=O)c3[nH]nnc3N)c(=O)n1CC2 [WX025],,0.44 nM,
CCOc1cc2c(cc1OC)-c1c/c(=N\c3c(C)cc(C)cc3C)n(CCNC(=O)c3[nH]nnc3OC)c(=O)n1CC2 [WX026],,2.5 nM,
CCOc1cc2c(cc1OC)-c1c/c(=N\c3c(C)cc(C)cc3C)n(CCNC(=O)c3c(O)nnn3C)c(=O)n1CC2 [WX036],,,Area under plasma concentration-time curve (0-inf) ([3]; intravenous injection 0.5 mg/kg): 0.21 µM·h; Area under plasma concentration-time curve (0-inf) ([3]; oral administration 3 mg/kg): 0.123 µM·h; Peak concentration ([3]; oral administration 3 mg/kg): 59.4 nM; Time to peak ([3]; oral administration 3 mg/kg): 0.6 h

# The next lines start with results.
IC50 (recombinant human PDE3A),IC50 (recombinant human PDE4B),Structure (SMILES),other results
,1.7 nM,CCOc1cc2c(cc1OC)-c1c/c(=N\c3c(C)cc(C)cc3C)n(CCNC(=O)c3[nH]ncc3OC)c(=O)n1CC2 [WX037],
0.1 nM,0.16 nM,CCOc1cc2c(cc1OC)-c1c/c(=N\c3c(C)cc(C)cc3C)n(CCNC(=O)c3nnc[nH]3)c(=O)n1CCC2 [WX047],
0.03 nM,0.27 nM,CCOc1cc2c(cc1OC)-c1c/c(=N\c3c(C)cc(C)cc3C)n(CCNC(=O)c3cnn[nH]3)c(=O)n1CCC2 [WX048],
0.3 nM,0.05 nM,CCOc1cc2c(cc1OC)-c1c/c(=N\c3c(C)cc(C)cc3C)n(CCNC(=O)c3cnc[nH]3)c(=O)n1CCC2 [WX049],
1.1 nM,0.24 nM,CCOc1cc2c(cc1OC)-c1c/c(=N\c3c(C)cc(C)cc3C)n(CCNC(=O)c3ccn[nH]3)c(=O)n1CCC2 [WX050],
0.5 nM,0.18 nM,CCOc1cc2c(cc1OC)-c1c/c(=N\c3c(C)cc(C)cc3C)n(CCNC(=O)c3ccn[nH]3)c(=O)n1CCO2 [WX052],
0.57 nM,1.9 nM,CCOc1cc2c(cc1OC)-c1c/c(=N\c3c(C)cc(C)cc3C)n(CCNC(=O)c3cnn[nH]3)c(=O)n1CCO2 [WX053],
,2.1 nM,CCOc1cc2c(cc1OC)-c1c/c(=N\c3c(C)cc(C)cc3C)n(CCC(=O)Nc3cnn[nH]3)c(=O)n1CC2 [WX055],
,9.1 nM,CCOc1cc2c(cc1OC)-c1c/c(=N\c3c(C)cc(C)cc3C)n(CCC(=O)Nc3ncco3)c(=O)n1CC2 [WX056],
,5.4 nM,CCOc1cc2c(cc1OC)-c1c/c(=N\c3c(C)cc(C)cc3C)n(CCC(=O)Nc3cn[nH]c3)c(=O)n1CC2 [WX057],
